Experimental data published in article PMC3231940, “Disposition, metabolism and mass balance of [^14C]apremilast following oral administration” (Xenobiotica; the Fate of Foreign Compounds in Biological …, 2011).

Legend:
[1] = system: PDE4 enzyme isolated from U937 human monocytic cells; assay: PDE4 inhibition, cAMP hydrolysis assay; format: biochemical
Protocol: (§1) PDE4 enzyme was isolated from U937 human monocytic cells and used for testing inhibition in a cAMP hydrolysis assay as previously described ([Schafer et al. 2010]). For the TNF-α production assay, human peripheral blood mono-nuclear cells (PBMC) were isolated from buffy coat of normal donor blood units (Blood Center of New Jersey, East Orange, NJ) by density centrifugation over Ficoll Hypaque (Pharmacia, Piscataway, NJ). Cells were cultured in RPMI 1640 (Life Technologies, Grand Island, NY) supplemented with 5% AB^+ human serum (Gemini Bio-products, Woodland, CA), 2-mM L-glutamine, 100-U/mL penicillin and 100-μg/mL streptomycin (Life Technologies). PBMC (2×10^5 cells) were plated in 96-well flat-bottom Costar tissue culture plates (Corning, NY) in duplicate. Cells were stimulated with lipopolysaccharides (LPS) (from Salmonella abortus equi; Sigma cat.no. L-1887, St.Louis, MO) at a final concentration of 1 ng/mL in the absence or presence of compounds. The compounds were dissolved in DMSO (Sigma) and subsequent dilutions were done in culture medium immediately before use. The compounds were added to cells 1 h before LPS stimulation. The cells were incubated for 16-18 h at 37°C in 5% CO2, and super-natants were then collected, diluted with culture medium and assayed for TNF-α levels by enzyme-linked immunosorbent assay (ThermoFisher, Rockford, IL). Fifty percent inhibitory concentrations (IC50) for the PDE4 enzymatic and TNF-α assay were calculated by non-linear regression analysis using Prism 5.1 (GraphPad Software). Regression curves were sigmoidal dose response curves with maximum and minimum constrained to 100% and 0%, respectively.

[2] = system: TNF-α production by human peripheral blood mononuclear cells; assay: TNF-α production assay in LPS-stimulated PBMC; format: cell-based; conditions: LPS 1 ng/mL, 16-18 h, ELISA
Protocol: as §1

[3] = Metabolite profiling by HPLC radiochromatography in plasma, urine and faeces; format: in vivo, human; parameters: key to Plasma (% AUC relative to TRA); share of circulating radioactivity / % of dose excreted, urine: ND: not detected; D: detected by MS, but at concentrations too low to accurately quantify by radiochromatography
Protocol: Individual plasma samples collected from all subjects at 0.5, 1, 2.5, 8, 24, 36 and 48 h post-dose were analysed for metabolite profiling. A pooled sample (equal volume from 0.5,1,2.5,8 and 24 h) from subject 1 was also used for metabolite profiling. Three volumes of acetonitrile were added to each sample, followed by mixing and centrifu-gation. The supernatant was removed and the pellet was washed twice with acetonitrile. The combined superna-tants were evaporated to dryness under a stream of nitrogen. The residues were re-suspended in acetonitrile: 1% formic acid in water (1:1), assayed for extraction recovery and analysed for metabolite profiling.
For each subject, urine samples were pooled using an equal percentage by volume of the 0-4, 4-8, 8-12 and 12-24-h samples. The 24-48-h urine sample from each subject and a pool of the 0-168-h urine samples from subject 1 were also analysed for metabolite profiling. Samples were mixed and centrifuged prior to the supernatants being transferred to fresh tubes for metabolite profiling analysis.
Faecal homogenates for metabolite profiling were pooled using an equal percentage by weight to generate two pools (0-48 h and 48-96 h) for each subject. An additional pool (0-168 h) was prepared using the samples collected from subject 1. An aliquot (approximately 6 g) of each pool was extracted with three volumes of acetonitrile; samples were mixed and centrifuged. The supernatant was removed and the pellets were extracted twice with an additional 12 mL of acetonitrile each time. The combined supernatants were evaporated to dryness under a stream of nitrogen and the residue was re-suspended in a small volume (approximately 400 μL) of acetonitrile: 1% formic acid in water (1:1). Samples were assayed for extraction recovery prior to metabolite profiling.
HPLC analysis for metabolite profiling was performed using a Shimadzu LC-10ADVP (Shimadzu Corp., Columbia, MD) or a Waters 2695 Alliance Separation Module (Waters Corp., Milford, MA) with the autosampler set to an ambient temperature of approximately 22°C. ASPD-10A VPUV-Vis Detector or a Waters 996 Photodiode array detector set to 254 nm was used to detect UV absorbance. [^14C]Apremilast and metabolites were separated using a Phenomenex Luna C 18(2) column (150 × 4.6 mm, 3 μm; Phenomenex, Torrance, CA) equipped with a RP-18 guard column (15×3.2 mm, 7 μm) or using an ACE 3 C18 column (150 × 4.6 mm, 3 μm; Advanced Chromatography Technologies, Aberdeen, Scotland) equipped with an ACE 3 guard column (10×3mm, 3 μm). The mobile phases used were 0.4% formic acid in water; pH 3.2 with ammonium hydroxide (mobile phase A) and acetonitrile (mobile phase B). The column temperature was 30°C and the flow rate was 0.7mL/min. The linear gradient was delivered as follows: 0-5 min to 100% A; 5-20 min to 85% A; 20-30 min hold at 85% A; 30-50 min to 65% A; 50-60 min to 60% A; 60-70 min to 50% A; 70-75 min to 0% A; hold at 0% A until 80 min; return to initial conditions over 2 min.
Radioactivity profiles for excreta were determined by radiochromatography using liquid chromatography-accurate radioisotope counting stop-flow system (LC-ARC; AIM Research Company, Wilmington, DE). Radioactivity was detected using a β-Ram Radioflow detector (IN/US Systems, Brandon, FL) equipped with a 1300-μL liquid cell. Liquid scintillation cocktail and column eluate were mixed at a ratio of 2.5:1. Radioactive peaks were quantified using LC-ARC data handling software. Plasma radioactivity profiles were determined by collecting the column eluate into 96-well Deepwell LumaPlates at a rate of 0.25 min/fraction. The plates were dried and the radioactivity in each well determined using a PerkinElmer TopCount NXT Microplate Scintillation Counter. HPLC radiochromatograms were reconstructed using LC-ARC data handling software.
Pharmacokinetic data were generated by non-compartmental analysis of plasma or whole blood versus time profiles using WinNonlin (version 4.1, Enterprise Edition). […]

IC50 ([1]; PDE4 from U937 cells, cAMP hydrolysis): 94 nM | IC50 [2]: 21 nM | Plasma (% AUC relative to TRA); share of circulating radioactivity ([3]; AUC0-t (unchanged drug or metabolite)/AUC0-48 (TRA) * 100%): D | % of dose excreted, faeces ([3]; faeces collected up to 96-h post-dose): 0.9 % of dose | Concentration in circulation relative to apremilast ([3]; plasma): < 2% | % of dose excreted, urine ([3]; urine collected up to 48-h post-dose): 1.2 % of dose
SMILES: CCOc1cc([C@@H](CS(C)(=O)=O)N2C(=O)c3cccc(NC(=O)CO)c3C2=O)ccc1OC [Metabolite M17]
PDE4 and TNF-α inhibition activity compared with apremilast ([1]; both assays, in words): IC50 values similar to those of apremilast
